Results published in US4317824A, “Derivatives of quinoxaline-1,4-dioxides” (Abic, Ltd., priority 1976, dated 1982).
In brackets after ≈: the same amount, converted by molar mass.

Key:
[1] = Acute oral LD50 in chicks; conditions: chicken, in vivo
in vivo = conditions: mouse, po
[2] = growth promotion experiment with male turkeys for 4 weeks; format: in vivo; conditions: P<0.001
Excerpt: The results were statistically significant (P<0.001).

Mycoplasma gallisept = test: antimicrobial activity, minimal inhibitory concentration, Mycoplasma gallisept; format: cell-based
Protocol: (§1) The antimicrobial activity of some compounds according to the present invention was measured and the results are shown in the following Tables. The activity is indicated as the minimal inhibitory concentration in μg/ml.

E. Coli [3] = test: Systemic E. Coli infection in mice; format: in vivo
Protocol: (§2) Some compounds of general formula Id were tested also in vivo.

St. aur = test: Systemic St. aur infection in mice; format: in vivo
Protocol: as §2

B. Subtilis = test: antimicrobial activity, minimal inhibitory concentration, B. Subtilis; format: cell-based; conditions: Bacillus subtilis
Protocol: as §1

Acute oral LD50 in mice = conditions: mouse, in vivo
E. Coli [4] = test: antimicrobial activity, minimal inhibitory concentration, E. Coli; format: cell-based; conditions: Escherichia coli
Protocol: as §1

Staph. Aur. = test: antimicrobial activity, minimal inhibitory concentration, Staph. Aur.; format: cell-based
Protocol: as §1

E. Coli [5] = test: U. Tract infections in mice (E. Coli); format: in vivo; conditions: U. Tract infections (E. Coli), 2,5 mg × 10 days
Protocol: as §2

Salm. Typh. = test: antimicrobial activity, minimal inhibitory concentration, Salm. Typh.; format: cell-based; conditions: read-out: minimal inhibitory concentration
Protocol: as §1

Trichophyt. Rubrum = test: antimicrobial activity, minimal inhibitory concentration, Trichophyt. Rubrum; format: cell-based
Protocol: as §1

Aspergillus Niger = test: antimicrobial activity, minimal inhibitory concentration, Aspergillus Niger; format: cell-based
Protocol: as §1

B. Cereus = test: antimicrobial activity, minimal inhibitory concentration, B. Cereus; format: cell-based; conditions: Bacillus cereus
Protocol: as §1

Pseud. Aur. = test: antimicrobial activity, minimal inhibitory concentration, Pseud. Aur.; format: cell-based
Protocol: as §1

Proteus = test: antimicrobial activity, minimal inhibitory concentration, Proteus; format: cell-based
Protocol: as §1

Crypt. Neof. = test: antimicrobial activity, minimal inhibitory concentration, Crypt. Neof.; format: cell-based
Protocol: as §1

Cand. Alb. = test: antimicrobial activity, minimal inhibitory concentration, Cand. Alb.; format: cell-based
Protocol: as §1

Row | SMILES | LD50 [1] [mg/kg] | LD50 (in vivo) [mg/kg] | increase in weight gain ([2]; 50 g/ton in the feed) [%] | MIC (Mycoplasma gallisept) [µg/mL] | MIC (E. Coli [4]) [µg/mL] | MIC (Staph. Aur.) [µg/mL] | Protection (E. Coli [5]) | MIC (Salm. Typh.) [µg/mL] | other results
1 | CN1CCN(C(=NO)c2c[n+]([O-])c3ccccc3[n+]2[O-])CC1 [Example 26a, 2-(4'-methyl-piperazino)-carboxaldoxime-quinoxaline-1,4-dioxide] | 400 | 1240 | 15.6 |  |  |  |  |  | 
2 | CCOC(=O)NNC(=NO)c1c[n+]([O-])c2ccccc2[n+]1[O-] [Example 35, 2-(carbazinic acid ethyl ester)-carboxaldoxime-quinoxaline-1,4-dioxide] | 1500 |  | 18.5 | 10 to 25 (≈ 32.5 to 81.4 µM) | 40 to 50 (≈ 130 to 163 µM) | 10 (≈ 32.5 µM) | + (indicates protection >80%) | 10 to 25 (≈ 32.5 to 81.4 µM) | Protection (E. Coli [3]; systemic E. Coli infection, 1,25 mg × 2 per day): + (indicates protection >80%); Protection (St. aur; systemic St. aur infection, 2,5 mg × 2 per day): + (indicates protection >80%); MIC (B. Subtilis): 10 µg/mL (≈ 32.5 µM); LD50 (Acute oral LD50 in mice): 4950 mg/kg; increase in weight gain ([2]; 30 g/ton in the feed): 18.7%; increase in weight gain ([2]; 75 g/ton in the feed): 16%
3 | CCCNC(=NO)c1c[n+]([O-])c2ccccc2[n+]1[O-] [Example 20, 2-(propylamino)-carboxamidoxime-quinoxaline-1,4-dioxide] |  |  |  | 25 to 50 (≈ 95.3 to 191 µM) | 25 (≈ 95.3 µM) | 10 (≈ 38.1 µM) | + (indicates protection >80%) | 25 (≈ 95.3 µM) | MIC (Trichophyt. Rubrum): 11 to 100 µg/mL (≈ 41.9 to 381 µM); Protection (E. Coli [3]; systemic E. Coli infection, 2,5 mg × 2 per day): + (indicates protection >80%); MIC (Aspergillus Niger): 11 to 100 µg/mL (≈ 41.9 to 381 µM); Protection (St. aur; systemic St. aur infection, 5 mg × 2 per day): - (indicates protection <50%); MIC (B. Cereus): 25 µg/mL (≈ 95.3 µM); MIC (Pseud. Aur.): 10 µg/mL (≈ 38.1 µM); MIC (Proteus): 11 to 100 µg/mL (≈ 41.9 to 381 µM); MIC (Crypt. Neof.): 11 to 100 µg/mL (≈ 41.9 to 381 µM); MIC (Cand. Alb.): 11 to 100 µg/mL (≈ 41.9 to 381 µM)
4 | [O-][n+]1cc(C(=NO)NN2CCOCC2)[n+]([O-])c2ccccc21 [Example 25, 2-(N-morpholinoamino)-carboxamidoxime-quinoxaline-1,4-dioxide] | 428 | 1240 |  |  |  |  |  |  | 
